{
  "source": "patent US20230355605A1",
  "about": "“DRUG FOR ENHANCING FIBRINOLYTIC SYSTEM, AND USE THEREFOR” (priority 2020, published 2023)",
  "key": {"[1]": {"molecular_target": "human-derived PAI-1 (Homo sapiens, UniProt P05121)", "sequence (P05121 24-402)": "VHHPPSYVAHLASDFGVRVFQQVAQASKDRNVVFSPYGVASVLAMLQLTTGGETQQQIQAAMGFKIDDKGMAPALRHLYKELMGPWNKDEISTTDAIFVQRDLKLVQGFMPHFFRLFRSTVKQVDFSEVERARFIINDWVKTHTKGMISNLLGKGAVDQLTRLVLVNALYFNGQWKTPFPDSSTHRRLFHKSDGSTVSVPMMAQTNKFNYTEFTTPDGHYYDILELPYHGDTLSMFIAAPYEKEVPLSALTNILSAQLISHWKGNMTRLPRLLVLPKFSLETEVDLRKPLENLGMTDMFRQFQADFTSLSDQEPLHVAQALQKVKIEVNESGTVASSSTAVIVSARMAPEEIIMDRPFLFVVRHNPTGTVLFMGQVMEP", "experiment": "Human plasma clot fibrinolysis test (PAI-1 inhibitory effect)", "assay_type": "biochemical", "settings": "human plasma clot with t-PA and human-derived PAI-1", "procedure": "A human plasma clot fibrinolysis test was performed to evaluate the PAI-1 inhibitory effect of the present compound.\nSpecifically, human-derived PAI-1 and the present compound were added to a reaction mixture containing t-PA, which dissolves blood clots caused by addition of thrombin to normal human pooled plasma, and the inhibition of the effect of t-PA by PAI-1 (PAI-1 effect) and the removal of the PAI-1 effect by the present compound (PAI-1 inhibition) (fibrinolysis enhancement) were evaluated."}, "[2]": {"design": "species or system human", "settings": "in vivo, po", "procedure": "A placebo-controlled single oral dose study was performed to examine the safety and pharmacokinetics upon single oral dose administration of the present compound in healthy Japanese adult males (subjects).\nThe oral dosages were 30 mg (step 1), 60 mg (step 2), 120 mg (step 3), and 240 mg (step 5) per day, and the food effect was separately examined in administration at a dosage of 60 mg (step 4) (a total of five steps). In steps 1 to 3 and 5, the number of subjects per step was 8 (6 subjects in the present compound administration group and 2 subjects in the placebo group), of which 1 subject of the present compound administration group and 1 subject of the placebo group were used as the preceding group, and 5 subjects of the present compound administration group and 1 subject of the placebo group were used as the following group. The study proceeds to the following group after confirming safety in the preceding group. The transition from one step to the next was made after confirming safety. In step 4, which examines the food effect, the present compound was orally administered to all 6 subjects. […]\nAfter administration of the present compound and the placebo, the following items were evaluated in each subject. […]"}, "[3]": {"molecular_target": "T1, PAI-1 (Homo sapiens, UniProt P05121)", "T1 construct": "from tissue; host or cells: plasma of human subjects (phase I study)", "T1 sequence (P05121 24-402)": "as above", "experiment": "PAI-1 activity in blood, phase I repeated oral dose study", "assay_type": "in vivo", "procedure": "The pharmacological activities (PAI-1 activity and t-PA activity) were evaluated using blood collected from the subjects before and after administration of the present compound or the placebo as test samples. Blood was collected before administration and 2, 4, and 8 hours after administration on the first day of the experiment (day 1) and day 7 after the start of the experiment, and on the other days, blood was collected once a day before administration (only before administration on days 2 to 6, day 8, and day 11 after the start of administration).\nAfter collecting blood samples from the subjects, the samples were treated with 3.2% citric acid salt and centrifuged at 4° C., 1,800 g for 10 minutes to obtain plasma. The collected plasma was used for measurement of PAI-1 activity and stored frozen at -80° C. or less until measurement.\nThe PAI-1 activity was measured using a human PAI-1 activity assay kit (produced by Molecular Innovations Inc.). In this system, a plasma sample collected from a subject is placed on a plate coated with urokinase plasminogen activator (uPA), PAI-1 in the sample is reacted with uPA, and then active PAI-1 bound to uPA is measured as PAI-1 activity using an antigen-antibody reaction with an anti-PAI-1 antibody by measuring the absorbance at a wavelength of 450 nm with a plate reader."}, "[4]": {"tested_on": "patients with COVID-19 pneumonia (mild to moderate)", "experiment": "Effectiveness study for COVID-19 pneumonia (exploratory early phase II study)", "assay_type": "in vivo, human", "text": "The effect of the present compound to prevent the aggravation of COVID-19 pneumonia and its safety were explored.\nOccurrence of transition to oxygen supply treatment under mechanical ventilation after the oral administration of the present compound (occurrence of deterioration of oxygenation)\n• (a) Survival for 28 days from the start of administration of the present compound • (b) Duration of hospitalization after the start of administration of the present compound • (c) Number of days required for oxygen administration after the start of administration of the present compound (d) Changes in the proportion of lesions in the lung field on chest CT images before and after the administration of the present compound\nOccurrence of adverse events after the start of administration of the present compound until the end of observation"}, "[5]": {"settings": "120 to 180 mg/day oral, 14 days"}, "[6]": {"settings": "after the start of administration, excluding undescribed and discontinued cases"}, "[7]": {"settings": "start of administration to end of observation, 26 patients"}},
  "data": [
    {"smiles": "O=C(Nc1ccc(Cl)cc1C(=O)[O-])c1cccc(-c2cccc3cccnc23)c1.[Na+]", "note": "[present compound, sodium 5-chloro-2-({ [3-(quinolin-8-yl)phenyl]carbonyl}amino)benzoate]", "values": [
      {"measurement": "concentration with PAI-1 inhibitory effect (fibrinolysis enhancement effect)", "setting": "[1]", "result": "≥ 10", "unit": "µM"},
      {"measurement": "AUC versus dosage", "setting": "[2]", "result": "linearity"},
      {"measurement": "PAI-1 activity in blood vs placebo", "setting": "[3]; 60 mg/day oral, days 1 and 7", "result": "neither PAI-1 activity nor t-PA activity was different"},
      {"measurement": "time after administration of maximal decrease in PAI-1 activity", "setting": "[3]; 120 mg/day oral", "result": 8, "unit": "h"},
      {"measurement": "PAI-1 activity in blood", "setting": "[3]; 120 mg/day oral, days 1 and 7", "result": "decreased"},
      {"measurement": "dosage at which PAI-1 is significantly inhibited and t-PA enhanced in humans", "setting": "[3]; oral", "result": "at least 120 mg per day"},
      {"measurement": "deterioration of oxygenation requiring mechanical ventilation", "setting": "[4]; [5]", "result": "no cases"},
      {"measurement": "number of days required for oxygen administration after the start of administration", "setting": "[4]; [5]", "result": "gradually decreased"},
      {"measurement": "survival for 28 days from the start of administration", "setting": "[4]; [5]", "result": "all cases survived"},
      {"measurement": "adverse events in patients concomitantly treated with Remdesivir, Avigan, inhaled steroid or antiplatelet agent", "setting": "[4]; Remdesivir 8, Avigan 5, inhaled steroid 22, antiplatelet agent 5 cases", "result": "no adverse events requiring treatment"},
      {"measurement": "Number of cases with duration of hospitalization 8 to 12 days", "setting": "[4]; [6]", "result": 5},
      {"measurement": "Number of cases with duration of hospitalization 13 to 17 days", "setting": "[4]; [6]", "result": 12},
      {"measurement": "Number of cases with duration of hospitalization 18 to 22 days", "setting": "[4]; [6]", "result": 4},
      {"measurement": "number of cases, oxygen dosage 0 L/day", "setting": "[4]; day 1", "result": 3},
      {"measurement": "number of cases, oxygen dosage 2 or less L/day", "setting": "[4]; day 1", "result": 12},
      {"measurement": "number of cases, oxygen dosage 5 or more L/day", "setting": "[4]; day 1", "result": 3},
      {"measurement": "number of cases, oxygen dosage More than 2 less than 5 L/day", "setting": "[4]; day 1", "result": 5},
      {"measurement": "number of cases, oxygen dosage 0 L/day", "setting": "[4]; day 2", "result": 3},
      {"measurement": "number of cases, oxygen dosage 2 or less L/day", "setting": "[4]; day 2", "result": 12},
      {"measurement": "number of cases, oxygen dosage 5 or more L/day", "setting": "[4]; day 2", "result": 2},
      {"measurement": "number of cases, oxygen dosage More than 2 less than 5 L/day", "setting": "[4]; day 2", "result": 6},
      {"measurement": "number of cases, oxygen dosage 0 L/day", "setting": "[4]; day 3", "result": 4},
      {"measurement": "number of cases, oxygen dosage 2 or less L/day", "setting": "[4]; day 3", "result": 13},
      {"measurement": "number of cases, oxygen dosage 5 or more L/day", "setting": "[4]; day 3", "result": 0},
      {"measurement": "number of cases, oxygen dosage More than 2 less than 5 L/day", "setting": "[4]; day 3", "result": 6},
      {"measurement": "number of cases, oxygen dosage 0 L/day", "setting": "[4]; day 4", "result": 7},
      {"measurement": "number of cases, oxygen dosage 2 or less L/day", "setting": "[4]; day 4", "result": 11},
      {"measurement": "number of cases, oxygen dosage 5 or more L/day", "setting": "[4]; day 4", "result": 0},
      {"measurement": "number of cases, oxygen dosage More than 2 less than 5 L/day", "setting": "[4]; day 4", "result": 5},
      {"measurement": "number of cases, oxygen dosage 0 L/day", "setting": "[4]; day 5", "result": 7},
      {"measurement": "number of cases, oxygen dosage 2 or less L/day", "setting": "[4]; day 5", "result": 12},
      {"measurement": "number of cases, oxygen dosage 5 or more L/day", "setting": "[4]; day 5", "result": 0},
      {"measurement": "number of cases, oxygen dosage More than 2 less than 5 L/day", "setting": "[4]; day 5", "result": 4},
      {"measurement": "number of cases, oxygen dosage 0 L/day", "setting": "[4]; day 6", "result": 10},
      {"measurement": "number of cases, oxygen dosage 2 or less L/day", "setting": "[4]; day 6", "result": 9},
      {"measurement": "number of cases, oxygen dosage 5 or more L/day", "setting": "[4]; day 6", "result": 0},
      {"measurement": "number of cases, oxygen dosage More than 2 less than 5 L/day", "setting": "[4]; day 6", "result": 4},
      {"measurement": "number of cases, oxygen dosage 0 L/day", "setting": "[4]; day 7", "result": 10},
      {"measurement": "number of cases, oxygen dosage 2 or less L/day", "setting": "[4]; day 7", "result": 9},
      {"measurement": "number of cases, oxygen dosage 5 or more L/day", "setting": "[4]; day 7", "result": 0},
      {"measurement": "number of cases, oxygen dosage More than 2 less than 5 L/day", "setting": "[4]; day 7", "result": 4},
      {"measurement": "number of cases, oxygen dosage 0 L/day", "setting": "[4]; day 8", "result": 12},
      {"measurement": "number of cases, oxygen dosage 2 or less L/day", "setting": "[4]; day 8", "result": 10},
      {"measurement": "number of cases, oxygen dosage 5 or more L/day", "setting": "[4]; day 8", "result": 0},
      {"measurement": "number of cases, oxygen dosage More than 2 less than 5 L/day", "setting": "[4]; day 8", "result": 1},
      {"measurement": "number of cases, oxygen dosage 0 L/day", "setting": "[4]; day 9", "result": 13},
      {"measurement": "number of cases, oxygen dosage 2 or less L/day", "setting": "[4]; day 9", "result": 9},
      {"measurement": "number of cases, oxygen dosage 5 or more L/day", "setting": "[4]; day 9", "result": 0},
      {"measurement": "number of cases, oxygen dosage More than 2 less than 5 L/day", "setting": "[4]; day 9", "result": 1},
      {"measurement": "number of cases, oxygen dosage 0 L/day", "setting": "[4]; day 10", "result": 17},
      {"measurement": "number of cases, oxygen dosage 2 or less L/day", "setting": "[4]; day 10", "result": 6},
      {"measurement": "number of cases, oxygen dosage 5 or more L/day", "setting": "[4]; day 10", "result": 0},
      {"measurement": "number of cases, oxygen dosage More than 2 less than 5 L/day", "setting": "[4]; day 10", "result": 0},
      {"measurement": "number of cases, oxygen dosage 0 L/day", "setting": "[4]; day 11", "result": 18},
      {"measurement": "number of cases, oxygen dosage 2 or less L/day", "setting": "[4]; day 11", "result": 5},
      {"measurement": "number of cases, oxygen dosage 5 or more L/day", "setting": "[4]; day 11", "result": 0},
      {"measurement": "number of cases, oxygen dosage More than 2 less than 5 L/day", "setting": "[4]; day 11", "result": 0},
      {"measurement": "number of cases, oxygen dosage 0 L/day", "setting": "[4]; day 12", "result": 20},
      {"measurement": "number of cases, oxygen dosage 2 or less L/day", "setting": "[4]; day 12", "result": 3},
      {"measurement": "number of cases, oxygen dosage 5 or more L/day", "setting": "[4]; day 12", "result": 0},
      {"measurement": "number of cases, oxygen dosage More than 2 less than 5 L/day", "setting": "[4]; day 12", "result": 0},
      {"measurement": "number of cases, oxygen dosage 0 L/day", "setting": "[4]; day 13", "result": 21},
      {"measurement": "number of cases, oxygen dosage 2 or less L/day", "setting": "[4]; day 13", "result": 2},
      {"measurement": "number of cases, oxygen dosage 5 or more L/day", "setting": "[4]; day 13", "result": 0},
      {"measurement": "number of cases, oxygen dosage More than 2 less than 5 L/day", "setting": "[4]; day 13", "result": 0},
      {"measurement": "number of cases, oxygen dosage 0 L/day", "setting": "[4]; day 14", "result": 22},
      {"measurement": "number of cases, oxygen dosage 2 or less L/day", "setting": "[4]; day 14", "result": 1},
      {"measurement": "number of cases, oxygen dosage 5 or more L/day", "setting": "[4]; day 14", "result": 0},
      {"measurement": "number of cases, oxygen dosage More than 2 less than 5 L/day", "setting": "[4]; day 14", "result": 0},
      {"measurement": "number of cases with reduced proportion of lesions in the lung field on chest CT images", "setting": "[4]; out of 18 cases, administration for 14 days", "result": 13, "unit": "cases"},
      {"measurement": "adverse events related to the present compound and requiring treatment", "setting": "[4]; start of administration to end of observation", "result": "no adverse events that were related to the present compound and that required treatment"},
      {"measurement": "number of adverse events", "setting": "[4]; [7]", "result": 33},
      {"measurement": "number of patients with adverse events", "setting": "[4]; [7]", "result": 17, "unit": "patients"}
    ]}
  ]
}
